Reference: patent publication US9676818B2, “Toll-like receptor 2-agonistic lipopeptides, and method of making the same” (University of Kansas, priority 2013, dated 2017)

Molecular target: human TLR2 (Homo sapiens (Human), UniProt O60603)
Assay: human TLR2-specific NF-κB reporter gene assay (HEK-Blue cells)
Format: cell-based
Settings: for EC50: human TLR2-specific reporter gene assay, ND = no activity detected at 10 μM, read-out: TLR2-Agonistic Activity (EC50 in nM); for hTLR2-agonistic activity in words: hTLR2 reporter gene assay
Description: The induction of NF-κB in a TLR2-specific reporter gene assay was quantified using HEK-BLUE™ cells as previously described (Wu, W. et al., J. Med. Chem. 2010, 53, 3198-3213). HEK293 cells stably transfected with either human TLR2 or murine TLR2 and alkaline phosphatase (sAP) were obtained from InvivoGen (San Diego, Calif.), and were maintained in HEK-BLUE™ Selection medium containing zeocin and normocin. Stable expression of secreted alkaline phosphatase (sAP) under control of NF-κB promoters is inducible by TLR2 agonists, and extracellular sAP in the supernatant is proportional to NF-κB induction. HEK-Blue cells were incubated at a density of ˜10^5 cells/mL in a volume of 80 μL/well, in 384-well, flat-bottomed, cell culture-treated microtiter plates until confluency was achieved, and then stimulated with serially-diluted aliquots of compounds for 12 h. sAP was assayed spectrophoto-metrically using an alkaline phosphatase-specific chromogen (present in the HEK-detection medium as supplied by the vendor) at 620 nm. For antagonism assays, HEK-Blue cells were incubated at a density of ˜10^5 cells/mL in a volume of 80 μL/well and stimulated with either PAM2CS (1 μg/mL) or lipoteichoic acid (1 μg/mL) in the presence of graded concentrations of the test compounds as described for TLR7 previously (Shukla, N. M.; et al., Bioorg. Med. Chem. Lett. 2009, 19, 2211-2214; Shukla, N. M. et al., Bioorg. Med. Chem. 2011, 19, 3801-3811).

Chain of human TLR2 (O60603 21-784): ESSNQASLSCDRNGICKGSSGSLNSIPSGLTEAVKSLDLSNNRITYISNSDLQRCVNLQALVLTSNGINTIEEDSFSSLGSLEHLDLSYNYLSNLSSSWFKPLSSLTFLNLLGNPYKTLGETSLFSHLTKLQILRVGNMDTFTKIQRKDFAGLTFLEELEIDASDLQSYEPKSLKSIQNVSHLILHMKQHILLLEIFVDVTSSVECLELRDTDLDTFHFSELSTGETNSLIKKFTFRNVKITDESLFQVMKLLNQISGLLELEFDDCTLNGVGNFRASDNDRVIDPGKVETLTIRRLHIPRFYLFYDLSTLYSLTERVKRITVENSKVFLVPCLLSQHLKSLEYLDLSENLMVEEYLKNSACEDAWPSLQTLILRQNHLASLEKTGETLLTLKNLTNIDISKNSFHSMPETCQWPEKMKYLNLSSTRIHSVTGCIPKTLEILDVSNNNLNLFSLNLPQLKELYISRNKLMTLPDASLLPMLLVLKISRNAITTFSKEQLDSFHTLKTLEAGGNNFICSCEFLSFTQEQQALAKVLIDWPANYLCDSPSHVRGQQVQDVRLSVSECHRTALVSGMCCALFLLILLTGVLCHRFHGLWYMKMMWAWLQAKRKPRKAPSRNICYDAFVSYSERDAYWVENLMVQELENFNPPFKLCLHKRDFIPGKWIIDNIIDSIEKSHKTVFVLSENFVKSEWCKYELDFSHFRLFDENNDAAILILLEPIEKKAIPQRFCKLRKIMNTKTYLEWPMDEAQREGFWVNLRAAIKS

Compound	EC50 [nM]	absolute magnitude of TLR2-induced NF-κB activation (hTLR2, FIG. 1)	hTLR2-agonistic activity in words
CCCCCCCCCCC[C@H](CC(=O)OCCSC[C@H](NC(C)=O)C(=O)N[C@@H](CO)C(=O)OC)OC(=O)CCCCCCCCC [Compound 86]	12.9	–	–
CCCCCCCCCCC[C@H](CC(=O)OCCSC[C@H](NC(C)=O)C(=O)N[C@@H](CO)C(=O)OC)OC(=O)CCCCCCC [Compound 85]	3.08	–	–
COC(=O)[C@H](CO)NC(=O)[C@@H](N)CSCCOC(=O)c1cccc(-c2ccccc2)c1 [Compound 6g, 2-(((R)-2-amino-3-(((S)-3-hydroxy-1-methoxy-1-oxopropan-2-yl)amino)-3-oxopropyl)thio)ethyl[1,1′-biphenyl]-3-carboxylate]	> 10000	–	complete absence of activity
CCCCCCCCCCCCCCCC(=O)O[C@H](CCCCCCCCCCC)CC(=O)OCCSC[C@H](NC(C)=O)C(=O)N[C@@H](CO)C(=O)OC [Compound 89]	4.78	–	–
CCCC(=O)OCCSC[C@H](N)C(=O)N[C@@H](CO)C(=O)OC [Compound 6a, 2-(((R)-2-Amino-3-(((S)-3-Hydroxy-1-Methoxy-1-oxopropan-2-yl)amino)-3-oxopropyl)thio)ethyl butyrate]	> 10000	–	–
CCCCCCCCCCCCCCNCC(=O)OCCSC[C@H](N)C(=O)N[C@@H](CO)C(=O)OC [Compound 10b, (S)-methyl 2-((R)-2-amino-3-((2-(2-(tetradecylamino)acetoxy)ethyl)thio)propanamido)-3-hydroxypropanoate]	> 10000	–	completely inactive
COC(=O)[C@H](CO)NC(=O)[C@@H](N)CSCCOC(=O)c1ccc(-c2ccc(-c3ccccc3)cc2)cc1 [Compound 6h]	–	–	complete absence of activity
CCCCCCCCCCCCCCCC(=O)OCCSC[C@H](N)C(=O)N[C@@H](COC(C)=O)C(=O)OC [Compound 14a, 2-(((R)-3-(((S)-3-acetoxy-1-methoxy-1-oxopropan-2-yl)amino)-2-amino-3-oxopropyl)thio)ethyl palmitate]	2.97	–	virtually indistinguishable from that of 6d
CCCCCCCC(=O)OCCSC[C@H](N)C(=O)N[C@@H](CO)C(=O)OC [Compound 6b, 2-(((R)-2-amino-3-(((S)-3-hydroxy-1-methoxy-1-oxopropan-2-yl)amino)-3-oxopropyl)thio)ethyl octanoate]	> 10000	–	–
CCCCCCCCCCCCCCCC(=O)OCCSC[C@H](NC(C)=O)C(=O)N[C@@H](COC(=O)c1cccnc1)C(=O)OC [Compound 28, (S)-2-((R)-2-Acetamido-3-((2-(palmitoyloxy)ethyl)thio)propanamido)-3-methoxy-3-oxopropyl nicotinate]	1.27	–	–
CCCCCCCCCCC[C@H](CC(=O)OCCSC[C@H](NC(C)=O)C(=O)N[C@@H](CO)C(=O)OC)OC(=O)CCC [Compound 83]	0.345	–	–
CCCCCCCCCCCC(=O)O[C@H](CCCCCCCCCCC)CC(=O)OCCSC[C@H](NC(C)=O)C(=O)N[C@@H](CO)C(=O)OC [Compound 87]	20.7	–	–
COC(=O)[C@H](CO)NC(=O)[C@@H](N)CSCCOC(=O)c1ccc(-c2ccccc2)cc1 [Compound 6f, 2-(((R)-2-amino-3-(((S)-3-hydroxy-1-methoxy-1-oxopropan-2-yl)amino)-3-oxopropyl)thio)ethyl[1,1′-biphenyl]-4-carboxylate]	> 10000	–	complete absence of activity
CCCCCCCCCCCCCCN(CCCCCCCCCCCCCC)CC(=O)OCCSC[C@H](N)C(=O)N[C@@H](CO)C(=O)OC [Compound 10a, (S)-methyl 2-((R)-2-amino-3-((2-(2-(ditetradecylamino)acetoxy)ethyl)thio)propan-amido)-3-hydroxypropanoate]	> 10000	–	completely inactive
CCCCCCCCCCCCCCCCn1cc(CCSC[C@H](NC(C)=O)C(=O)N[C@@H](CO)C(=O)OC)nn1 [Compound 38, (S)-Methyl 2-((R)-2-acetamido-3-((2-(1-hexadecyl-1H-1,2,3-triazol-4-yl)ethyl)thio)propanamido)-3-hydroxypropanoate]	641	–	–
CCCCCCCCCCC[C@@H](O)CC(=O)OCCSC[C@H](NC(C)=O)C(=O)N[C@@H](CO)C(=O)OC [Compound 65]	1.13	–	–
CCCCCCCCCCCC(=O)OCCSC[C@H](N)C(=O)N[C@@H](CO)C(=O)OC [Compound 6c, 2-(((R)-2-amino-3-(((S)-3-hydroxy-1-methoxy-1-oxopropan-2-yl)amino)-3-oxopropyl)thio)ethyl dodecanoate]	> 10000	–	–
CCCCCCCCCCCCCC(=O)O[C@H](CCCCCCCCCCC)CC(=O)OCCSC[C@H](NC(C)=O)C(=O)N[C@@H](CO)C(=O)OC [Compound 88]	9.52	–	–
CCCCCCCCCCC[C@H](CC(=O)OCCSC[C@H](NC(C)=O)C(=O)N[C@@H](CO)C(=O)OC)OC(C)=O [Compound 82]	0.182	–	–
CCCCCCCCCCCCCCCCOC(=O)NCCSC[C@H](NC(C)=O)C(=O)N[C@@H](CO)C(=O)OC [Compound 48, (2S,5R)-Methyl 5-acetamido-2-(hydroxymethyl)-4,11-dioxo-12-oxa-7-thia-3,10-diazaoctacosan-1-oate]	0.0615	–	–
CCCCCCCCCCCCCCCC(=O)OCCCSC[C@H](NC(C)=O)C(=O)N[C@@H](CO)C(=O)OC [Compound 16, 3-(((R)-2-acetamido-3-(((S)-3-hydroxy-1-methoxy-1-oxopropan-2-yl)amino)-3-oxopropyl)thio)propyl palmitate]	5.52	–	active, albeit much weaker in potency than 11d

Continued, values first:

EC50 [nM]	absolute magnitude of TLR2-induced NF-κB activation (hTLR2, FIG. 1)	hTLR2-agonistic activity in words	Compound
1.01	far greater	–	CCCCCCCCCCCCCCCC(=O)OCCSC[C@H](NC(C)=O)C(=O)N[C@@H](CO)C(=O)OC [Compound 11d, 2-(((R)-2-acetamido-3-(((S)-3-hydroxy-1-methoxy-1-oxopropan-2-yl)amino)-3-oxopropyl)thio)ethyl palmitate]
5.95	–	–	CCCCCCCCCCCCCCCC(=O)OCCSC[C@H](N)C(=O)N[C@@H](COC(=O)CCCCCCCCCCCCCCC)C(=O)OC [Compound 14c, 2-(((R)-2-amino-3-(((S)-1-methoxy-1-oxo-3-(palmitoyloxy)propan-2-yl)amino)-3-oxopropyl)thio)ethyl palmitate]
1.64	–	–	CCCCCCCCCCCCCCCC(=O)OCCSC[C@H](NC(=O)CCC)C(=O)N[C@@H](CO)C(=O)OC [Compound 11e, 2-(((R)-2-butyramido-3-(((S)-3-hydroxy-1-methoxy-1-oxopropan-2-yl)amino)-3-oxopropyl)thio)ethyl palmitate]
> 10000	–	inactive	CCCCCCCCCCCCCCCC(=O)OCCSC[C@H](NCC)C(=O)N[C@@H](CO)C(=O)OC [Compound 11a, 2-(((R)-2-(ethylamino)-3-(((S)-3-hydroxy-1-methoxy-1-oxopropan-2-yl)amino)-3-oxopropyl)thio)ethyl palmitate]
5.47	–	–	CCCCCCCCCCCCCCCC(=O)OCCSC[C@H](N)C(=O)N[C@@H](COC(=O)CCC)C(=O)OC [Compound 14b, 2-(((R)-2-amino-3-(((S)-3-(butyryloxy)-1-methoxy-1-oxopropan-2-yl)amino)-3-oxopropyl)thio)ethyl palmitate]
> 10000	–	inactive	CCCCCCCCCCCCCCCC(=O)OCCSC[C@H](NCCCCCCCC)C(=O)N[C@@H](CO)C(=O)OC [Compound 11b, 2-(((R)-3-(((S)-3-hydroxy-1-methoxy-1-oxopropan-2-yl)amino)-2-(octylamino)-3-oxopropyl)thio)ethyl palmitate]
> 10000	–	complete loss of activity	CCCCCCCCCCCCCCCC(=O)N[C@@H](CSCCOC(=O)CCCCCCCCCCCCCCC)C(=O)N[C@@H](CO)C(=O)OC [Compound 11g, 2-(((R)-3-(((S)-3-hydroxy-1-methoxy-1-oxopropan-2-yl)amino)-3-oxo-2-palmitamidopropyl)thio)ethyl palmitate]
> 10000	–	inactive	CCCCCCCCCCCCCCCC(=O)OCCSC[C@H](NC(=O)C(Cl)(Cl)Cl)C(=O)N[C@@H](CO)C(=O)OC [Compound 11i, 2-(((R)-3-(((S)-3-hydroxy-1-methoxy-1-oxopropan-2-yl)amino)-3-oxo-2-(2,2,2-trichloroacetamido)propyl)thio)ethyl palmitate]
3.8	–	–	CCCCCCCCCCCCCCCC(=O)OCCSC[C@H](NC(=O)CCCCCCC)C(=O)N[C@@H](CO)C(=O)OC [Compound 11f, 2-(((R)-3-(((S)-3-hydroxy-1-methoxy-1-oxopropan-2-yl)amino)-2-octanamido-3-oxopropyl)thio)ethyl palmitate]
> 10000	–	inactive	CCCCCCCCCCCCCCCC(=O)OCCSC[C@H](NS(C)(=O)=O)C(=O)N[C@@H](CO)C(=O)OC [Compound 11j, 2-(((R)-3-(((S)-3-hydroxy-1-methoxy-1-oxopropan-2-yl)amino)-2-(methylsulfonamido)-3-oxo-propyl)thio)ethyl palmitate]
